Measurements taken from patent US5914328A, “Heterocyclic ether compounds useful in controlling neurotransmitter release” (Abbott Laboratories, priority 1995, dated 1999).
Where a name gives a salt, the structure may show the parent alone. Read-outs that look alike come from different tables or passages of the source.

Tests used:
[1] = system: nAChR evoked release of [3H]-dopamine; assay: Striatal dopamine release ([3H]-dopamine, superfused rat striatal slices); format: cell-based; settings: standard 100 nM (-)-nicotine = 1.0
Method: The protocol for this procedure follows below.
A. Protocol for Determination of Striatal Dopamine Release.
nAChR evoked release of [ring-2,5,6-^3 H]-dopamine (24.4 Ci/mmol) was measured in superfused rat striatal slices. Striata were dissected from two male Sprague-Dawley rats per experiment and sliced 0.35×0.25 mm by a McIlwain Tissue Chopper (Brinkman Instrument Co., Westbury, N.Y.). After two washes with Krebs-HEPES buffer (137 mM NaCl, 4.7 mM KCl, 1 mM MgSO4, 2.5 mM CaCl2, 1.25 mM NaH2 PO4, 10 mM glucose, 15 mM HEPES-NaOH, pH 7.4, containing 10 μM pargyline and 10 μM ascorbic acid), slices were preincubated for 10 minutes at […] under 95%/5% O2 /CO2. After replacing the buffer, slices were labeled with […] [^3 H]-dopamine for 25 min in Krebs-HEPES at […] Aliquots of slices were placed in 18 superfusion chambers of a Brandel SP2000 superfusion apparatus (Brandel, Gaithersberg, Md.). Following 47 minutes of washout, slices were exposed to agonist at various concentrations for4 minutes. Antagonists or inhibitors, when present were introduced 4 minutes prior to and during agonist exposure. Collected fractions were counted in 5 mL of Ecolume. Tissue was recovered from superfusion chambers, solubilized with 1 mL of Solvable™ (DuPont-NEN) and counted in 15 mL of Ecolume. Fractional release of [^3 H]-dopamine was calculated from radioactivity above baseline as a fraction of total radioactivity.

[2] = molecular target: neuronal nicotinic cholinergic channel receptor; assay: Binding of [3H]-cytisine to neuronal nicotinic receptors, whole rat brain synaptic membranes
Method: B. Protocol For Determination of Nicotinic Cholinergic Channel Receptor Binding Potencies of Ligands
Binding of [^3 H]-cytisine ([^3 H]-CYT) to nicotinic receptors was accomplished using crude synaptic membrane preparations from whole rat brain (Pabreza et al., Molecular Pharmacol., 1990, 39:9). Washed membranes were stored at -80° C. prior to use. Frozen aliquots were slowly thawed and resuspended in 20 volumes of buffer (containing: 120 mM NaCl, 5 mM KCl, 2 mM MgCl2, 2 mM CaCl2 and 50 mM Tris-Cl, pH 7.4 @4° C.). After centrifuging at 20,000×g for 15 minutes, the pellets were resuspended in 30 volumes of buffer. Homogenate (containing […]) was added to triplicate tubes containing concentrations of test compound and [^3 H]-CYT (1.25 nM) in a final volume of 500 μL. Samples were incubated for 60 minutes at 4° C., then rapidly filtered through Whatman GF/B filters presoaked in 0.5% polyethylimine using 3×4 mL of ice-cold buffer. The filters are counted in 4 mL of Ecolume® (ICN). […] Alternately, data were expressed as a percentage of the total specific binding.

[3] = system: cholinergic ligand-gated channels; assay: Cholinergic channel activation in PC12 cells, whole-cell patch-clamp; format: cell-based; settings: whole-cell patch-clamp current
Text: D. Protocols for the Determination of Cholinergic Channel Activation in PC12 Cells.
The cholinergic channel activator properties of Example 9 were investigated in PC12 cells using the whole-cell patch-clamp approach to measure current flow through ligand-gated membrane channels.

[4] = example concentration 10 μM (*)
[5] = example concentration 1 μM (**)
[6] = read-out: Receptor Binding Ki (Table 2)
[7] = example concentration 0.1 μ (***)
[8] = read-out: Receptor Binding Ki (Table 1)

With `Cc1ccncc1OC[C@@H]1CCCN1C.Cl.Cl` [Example 46, 4-methyl-3-((1-methyl-2-(S)-pyrrolidinyl)methoxy)pyridine dihydrochloride] the “Dopamine Release relative to Nicotine” value [1, 4] was 0.85.

In the case of `CN1CC[C@H]1COc1cnccn1.Cl.Cl` [Example 8, 2-((1-methyl-2-(S)-azetidinyl)methoxy)pyrazine dihydrochloride], the “Dopamine Release relative to Nicotine” value [1, 4] is reported as 0.55.

With `CN1CCC[C@H]1COc1cncc(Cl)c1` [Example 16, 5chloro-3-((1-methyl-2-(S)-pyrrolidinyl)methoxypyridinedihydrochloride] the “Dopamine Release relative to Nicotine” value [1, 5] was 1.0.

For `Cc1ncccc1OC[C@@H]1CCN1` [Example 29, 2-methyl-3-(2-(S)-azetidinylmethoxy)pyridine dihydrochloride], the Ki [2, 6] was 1.3 nM.

For `Cc1ccc(OC[C@H]2CCCN2C)cn1` [Example 36, 6-methyl-3-((1-methyl-2-(R)-pyrrolidinyl)methoxy)pyridine dihydrochloride], the Ki [2, 6] was 26 nM.

For `CCN1CCC[C@H]1COc1cccnc1.Cl.Cl` [Example 38, 3-((1-ethyl-2(S)-pyrrolidinyl)methoxy)pyridine dihydrochloride], the “Dopamine Release relative to Nicotine” value [1, 4] was 0.6.

`Cc1ccc(OC[C@@H]2CCCN2)cn1.Cl.Cl` [Example 18, 6-methyl-3-(2-(S)-pyrrolidinylmethoxy)pyridine dihydrochloride] was tested, and the “Dopamine Release relative to Nicotine” value [1, 7] was 1.0.

Work on `CN1CCCCC1COc1cccnc1` (stereo not shown) [Example 26, 3-((1-methyl-2-piperidinyl)methoxy)pyridine oxalate salt] yielded a Ki [2, 6] of 76 nM.

In the case of `Cl.Cl.c1cncc(OC[C@@H]2CCN2)c1` [Example 9, 3-(2-(S)-azetidinylmethoxy)pyridine dihydrochloride], the “Dopamine Release relative to Nicotine” value [1, 4] is reported as 1.0 and the “cholinergic channel activator properties (in words)” value [3] is reported as “clear agonist activity”.

With `C[C@@H]1C[C@@H](COc2cccnc2)N(C)C1` [Example 24, 3-((trans-1,4dimethyl-2(S)-pyrrolidinone)methoxy)pyridine dihydrochloride] the Ki [2, 6] was 4.2 nM.

`CN1CCC[C@@H]1COc1cccnc1.Cl` [Example 1, 3-((1-methyl-2-(R)-pyrrolidinyl)methoxy)pyridine hydrochloride] was tested, and the “Dopamine Release relative to Nicotine” value [1, 4] was 0.08.

With `Clc1ccc(OC[C@@H]2CCN2)cn1` [Example 52, 3-(2-(S)-azetidinylmethoxy)-6-chloropyridine dihydrochloride] the “Dopamine Release relative to Nicotine” value [1, 4] was 1.0.

`c1cncc(OC[C@@H]2CCCN2)c1` [Example 14, 3-(2-(S)-pyrrolidinylmethoxypyridine fumarate] was tested, and the Ki [2, 8] was 0.14 nM and the “Dopamine Release relative to Nicotine” value [1, 5] was 1.0.

With `Cc1ccc(OC[C@@H]2CCN2C)cn1.Cl.Cl` [Example 59, 3-((1-methyl-2-(S)-azetidinyl)methoxy)-6-methylpyridine dihydrochloride] the “Dopamine Release relative to Nicotine” value [1, 4] was 0.7.

In the case of `Cl.Cl.Clc1cncc(OC[C@H]2CCCN2)c1` [Example 33, 5-chloro-3-(2-(R)-pyrrolidinylmethoxy)pyridine dihydrochloride], the “Dopamine Release relative to Nicotine” value [1, 5] is reported as 0.62.

In the case of `CN1CCC[C@H]1COc1cnc2ccccc2c1.Cl` [Example 31, 3-(1-methyl-2-(S)-pyrrolidinylmethoxy)quinoline hydrochloride], the “Dopamine Release relative to Nicotine” value [1, 4] is reported as 0.15.

With `CN1CCC[C@H]1COc1cccnc1.O=C(O)/C=C/C(=O)O` [Example 4, 3-((1-methyl-2-(S)-pyrrolidinyl)methoxy)pyridine fumarate] the “Dopamine Release relative to Nicotine” value [1, 4] was 1.0.

For `CN1CC[C@H]1COc1cccnc1` [Example 10, 3-((1-methyl-2-(S)-azetidinyl)methoxypyridinedihydrochloride], the Ki [2, 8] was 0.25 nM and the “Dopamine Release relative to Nicotine” value [1, 4] was 1.0.

With `Cc1ccc(OC[C@@H]2CCCN2C)cn1.Cl.Cl` [Example 19, 6methyl-3-((1-methyl-2-(S)-pyrrolidinyl)methoxy)pyridine dihydrochloride] the Ki [2, 8] was 1.47 nM and the “Dopamine Release relative to Nicotine” value [1, 7] was 0.78.

For `Cc1ccc(OCC2CCCN2)cn1` (stereo not shown) [Example 37, 6methyl-3-(2-(R-pyrrolidinylmethoxy)pyridinedihydrochloride], the Ki [2, 8] was 0.5 nM and the “Dopamine Release relative to Nicotine” value [1, 4] was 0.8.

With `CC(Oc1cccnc1)[C@@H]1CCCN1C` (stereo partly drawn) [Example 6, 3-(a-methyl-(1-methyl-2-(S)-pyrrolidinyl)methoxy)pyridine hydrochloride] the Ki [2, 6] was 6.7 nM.

With `CN1CCC[C@H]1CCOc1cccnc1.Cl.Cl` [Example 103, 3-(2-(1-methyl-2-(S)-pyrrolidinyl)ethoxy)pyridine dihydrochloride] the “Dopamine Release relative to Nicotine” value [1, 4] was 0.3.

Compound `c1cnc(OC[C@@H]2CCN2)cn1` [Example 7] has a Ki ([2]; [3H]-cytisine 1.25 nM, rat brain membranes, 4° C., Table 2, read-out: Receptor Binding Ki (Table 2)) of 0.44 nM.
